The values that follow come from patent publication US11001590B2, “Pyrazolopyrimidine derivatives” (BAYER ANIMAL HEALTH GMBH, priority 2016, dated 2021).

Molecules are shown by their SMILES. pEC50: −log10 of the molar value.

In the first data set the test system is Nippostrongylus brasiliensis. The data set can be described thus: In vitro assay 2: Nippostrongylus brasiliensis (NIPOBR), acetylcholine esterase readout. As to conditions: adult worms, 1 μg/ml (1 ppm), read-out: activity (reduction of AChE compared to negative control). The method, then:
In Vitro Assay 2: Nippostronqylus Brasiliensis (NIPOBR)
Adult Nippostrongylus brasiliensis were washed with saline buffer containing 100 U/ml penicillin, 0.1 mg/ml streptomycin and 2.5 μg/ml amphotericin B. Test compounds were dissolved in DMSO and worms were incubated in medium in a final concentration of 10 μg/ml (10 ppm) respectively 1 μg/ml (1 ppm). An aliquot of the medium was used to determine the acetylcholine esterase activity in comparison to a negative control. The principle of measuring acetylcholine esterase as readout for anthelmintic activity was described in Rapson et al (1986) and Rapson et al (1987).
On to `Cc1nn2c(C(C)C)c(C(=O)N[C@H]3CCOc4ccccc43)cnc2c1-c1cc(Cl)cc(Cl)c1F` [Example 262], for which the inhibition at 1 µg/mL was above 80%.

On to `Cc1nn2c(C(C)C)c(C(=O)N[C@H]3CCOc4ccccc43)cnc2c1-c1cc(Cl)cc(Cl)c1` [Example 152], for which the inhibition at 1 µg/mL was above 80%.

Consider `COc1cc(-c2c(C)nn3c(C(C)C)c(C(=O)N[C@H]4CCOc5ccccc54)cnc23)ccc1F` [Example 244], for which the inhibition at 1 µg/mL was above 80%.

Turning to `Cc1nn2c(C(C)C)c(C(=O)N[C@H]3CCOc4ccccc43)cnc2c1-c1cc(Cl)c(F)c(Cl)c1` [Example 194], the inhibition at 1 µg/mL is above 80%.

Staying with this data set, now noted: adult worms, 10 μg/ml (10 ppm), read-out: activity (reduction of AChE compared to negative control).
`Cc1nn2c(C3CC3)c(C(=O)N[C@H]3CCOc4ccccc43)cnc2c1-c1cccc2c1CCN2C` [Example 474]: the inhibition at 10 µg/mL is above 80%.

`Cc1nn2c(C(C)C)c(C(=O)N[C@H]3CCc4ccccc43)cnc2c1-c1cc(Cl)c(F)c(Cl)c1` [Example 127]: the inhibition at 10 µg/mL was above 80%.

`Cc1nn2c(C(C)C)c(C(=O)N[C@H]3CCOc4ccccc43)cnc2c1-c1cc(Cl)cc(Cl)c1F` [Example 262]: the inhibition at 10 µg/mL was above 80%.

Take `Cc1nn2c(C(C)C)c(C(=O)N[C@H]3CCOc4ccccc43)cnc2c1-c1cc(Cl)cc(Cl)c1` [Example 152]: the inhibition at 10 µg/mL is above 80%.

For the compound `COc1cc(-c2c(C)nn3c(C(C)C)c(C(=O)N[C@H]4CCOc5ccccc54)cnc23)ccc1F` [Example 244], the inhibition at 10 µg/mL was above 80%.

As to `Cc1nn2c(C(C)C)c(C(=O)N[C@H]3CCOc4ccccc43)cnc2c1-c1cc(Cl)c(F)c(Cl)c1` [Example 194], the inhibition at 10 µg/mL is above 80%.

The subject of the next data set is Dirofilaria immitis microfilariae. The experiment in a line: In vitro assay 3: Dirofilaria immitis microfilariae (DIROIM L1), motility. The conditions noted are these: 72 h, reduction of motility vs negative control, 72 h incubation.
The compound `Cc1nn2c(C3CC3)c(C(=O)N[C@H]3CCOc4ccccc43)cnc2c1-c1cccc2c1CCN2C` [Example 474] had an EC50 below 1 µg/mL.

With `Cc1nn2c(C(C)C)c(C(=O)N[C@H]3CCc4ccccc43)cnc2c1-c1cc(Cl)c(F)c(Cl)c1` [Example 127], the EC50 is below 0.1 µg/mL.

Consider `Cc1nn2c(C(C)C)c(C(=O)N[C@H]3CCOc4ccccc43)cnc2c1-c1cc(Cl)cc(Cl)c1F` [Example 262], for which the EC50 is below 0.1 µg/mL.

`Cc1nn2c(C(C)C)c(C(=O)N[C@H]3CCOc4ccccc43)cnc2c1-c1cc(Cl)cc(Cl)c1` [Example 152] displayed an EC50 below 0.1 µg/mL.

With `COc1cc(-c2c(C)nn3c(C(C)C)c(C(=O)N[C@H]4CCOc5ccccc54)cnc23)ccc1F` [Example 244], the EC50 is below 1 µg/mL.

`Cc1nn2c(C(C)C)c(C(=O)N[C@H]3CCOc4ccccc43)cnc2c1-c1cc(Cl)c(F)c(Cl)c1` [Example 194] came in with an EC50 below 0.1 µg/mL.

In the next data set the test system is Dirofilaria immitis third-stage larvae. The data set can be described thus: In vitro assay 4: Dirofilaria immitis (DIROIM L4), motility of larvae. The conditions noted are these: 72 h.
For `Cc1nn2c(C3CC3)c(C(=O)N[C@H]3CCOc4ccccc43)cnc2c1-c1cccc2c1CCN2C` [Example 474], the EC50 was below 0.1 µg/mL.

Turning to `Cc1nn2c(C(C)C)c(C(=O)N[C@H]3CCc4ccccc43)cnc2c1-c1cc(Cl)c(F)c(Cl)c1` [Example 127], the EC50 is below 0.1 µg/mL.

`Cc1nn2c(C(C)C)c(C(=O)N[C@H]3CCOc4ccccc43)cnc2c1-c1cc(Cl)cc(Cl)c1F` [Example 262] registered an EC50 below 0.1 µg/mL.

The compound `Cc1nn2c(C(C)C)c(C(=O)N[C@H]3CCOc4ccccc43)cnc2c1-c1cc(Cl)cc(Cl)c1` [Example 152] displayed an EC50 below 1 µg/mL.

Take `COc1cc(-c2c(C)nn3c(C(C)C)c(C(=O)N[C@H]4CCOc5ccccc54)cnc23)ccc1F` [Example 244]: the EC50 is below 0.1 µg/mL.

Regarding `Cc1nn2c(C(C)C)c(C(=O)N[C@H]3CCOc4ccccc43)cnc2c1-c1cc(Cl)c(F)c(Cl)c1` [Example 194], the EC50 was below 0.1 µg/mL.

In another data set the test system is Cooperia curticei. The data set can be described thus: In vitro assay 5: Cooperia curticei (COOPCU), larval mortality. The conditions noted are these: 120 h, read-out: activity (percentage of larval mortality).
Experimental: In Vitro Assay 5: Cooperia curticei (COOPCU)
Solvent: Dimethyl Sulfoxide
Approximately 40 nematode larvae (Cooperia curticei) are transferred into a test tube containing the compound solution.
After 5 days percentage of larval mortality is recorded. 100% efficacy means all larvae are killed; 0% efficacy means no larvae are killed.
Regarding `Cc1nn2c(C3CC3)c(C(=O)N[C@H]3CCOc4ccccc43)cnc2c1-c1cccc2c1CCN2C` [Example 474], the mortality at 20 ppm is 90%.

With `Cc1nn2c(C(C)C)c(C(=O)N[C@H]3CCOc4ccccc43)cnc2c1-c1cc(Cl)cc(Cl)c1F` [Example 262], the mortality at 20 ppm is 90%.

Take `COc1cc(-c2c(C)nn3c(C(C)C)c(C(=O)N[C@H]4CCOc5ccccc54)cnc23)ccc1F` [Example 244]: the mortality at 20 ppm worked out at 90%.

The next data set has as its system Litomosoides sigmodontis third-stage larvae. The experiment in a line: In vitro assay 7: Litomosoides sigmodontis L3 (LTMOSI), motility. The conditions noted are these: 72 h, reduction of motility vs negative control, 72 h incubation.
Experimental: In Vitro Assay 7: Litomosoides Siqmodontis L3 (LTMOSI)
10 Litomosoides sigmodontis third-stage larvae, which were freshly isolated from the pleural cavity of an infected rodent, were added to wells of a microtitre plate containing a nutrient medium and the test compound in DMSO. Compounds were tested in concentration-response assay in duplicate. Larvae exposed to DMSO and no test compounds were used as negative controls. Larvae were evaluated after 72 h of incubation with the compound. Efficacy was determined as the reduction of motility in comparison to the negative control. Based on the evaluation of a wide concentration range, concentration-response curves as well as ECso-values were calculated.
Consider `Cc1nn2c(C3CC3)c(C(=O)N[C@H]3CCOc4ccccc43)cnc2c1-c1cccc2c1CCN2C` [Example 474], for which the EC50 is below 0.1 µg/mL.

Take `Cc1nn2c(C(C)C)c(C(=O)N[C@H]3CCc4ccccc43)cnc2c1-c1cc(Cl)c(F)c(Cl)c1` [Example 127]: the 50% effective concentration (EC50) was below 0.1 µg/mL.

In turn, `Cc1nn2c(C(C)C)c(C(=O)N[C@H]3CCOc4ccccc43)cnc2c1-c1cc(Cl)cc(Cl)c1F` [Example 262] displayed an EC50 below 0.1 µg/mL.

As to `Cc1nn2c(C(C)C)c(C(=O)N[C@H]3CCOc4ccccc43)cnc2c1-c1cc(Cl)cc(Cl)c1` [Example 152], the EC50 was below 0.1 µg/mL.

The compound `COc1cc(-c2c(C)nn3c(C(C)C)c(C(=O)N[C@H]4CCOc5ccccc54)cnc23)ccc1F` [Example 244] returned an EC50 below 0.1 µg/mL.

For the compound `Cc1nn2c(C(C)C)c(C(=O)N[C@H]3CCOc4ccccc43)cnc2c1-c1cc(Cl)c(F)c(Cl)c1` [Example 194], the EC50 was below 0.1 µg/mL.

Test system in the next data set: not listed separately
The experiment in a line: log P by HPLC on reversed phase columns (Method L0; [a] acidic, [b] neutral range).
Conditions: not given
For the compound `Cc1nn2c(C3CC3)c(C(=O)N[C@H]3CCOc4ccccc43)cnc2c1-c1cccc2c1CCN2C` [Example 474], the chromatographic logP worked out at 3.25.

In the case of `Cc1nn2c(C(C)C)c(C(=O)N[C@H]3CCc4ccccc43)cnc2c1-c1cc(Cl)c(F)c(Cl)c1` [Example 127], the chromatographic logP was 5.91.

Compound `Cc1nn2c(C(C)C)c(C(=O)N[C@H]3CCOc4ccccc43)cnc2c1-c1cc(Cl)cc(Cl)c1F` [Example 262] came in with a chromatographic logP of 5.36.

As for `Cc1nn2c(C(C)C)c(C(=O)N[C@H]3CCOc4ccccc43)cnc2c1-c1cc(Cl)cc(Cl)c1` [Example 152], the chromatographic logP amounted to 5.84.

With `COc1cc(-c2c(C)nn3c(C(C)C)c(C(=O)N[C@H]4CCOc5ccccc54)cnc23)ccc1F` [Example 244], the chromatographic logP worked out at 4.32.

`Cc1nn2c(C(C)C)c(C(=O)N[C@H]3CCOc4ccccc43)cnc2c1-c1cc(Cl)c(F)c(Cl)c1` [Example 194] had a chromatographic logP of 5.65.

The target in the next data set is C. elegans Slo-1a (Caenorhabditis elegans, UniProt Q95V25). The experiment in a line: In vitro assay 1: C. elegans Slo-1a, action at a recombinant C. elegans CHO cell line (membrane potential measurement).
C. elegans Slo-1a, sequence (Q95V25 whole entry): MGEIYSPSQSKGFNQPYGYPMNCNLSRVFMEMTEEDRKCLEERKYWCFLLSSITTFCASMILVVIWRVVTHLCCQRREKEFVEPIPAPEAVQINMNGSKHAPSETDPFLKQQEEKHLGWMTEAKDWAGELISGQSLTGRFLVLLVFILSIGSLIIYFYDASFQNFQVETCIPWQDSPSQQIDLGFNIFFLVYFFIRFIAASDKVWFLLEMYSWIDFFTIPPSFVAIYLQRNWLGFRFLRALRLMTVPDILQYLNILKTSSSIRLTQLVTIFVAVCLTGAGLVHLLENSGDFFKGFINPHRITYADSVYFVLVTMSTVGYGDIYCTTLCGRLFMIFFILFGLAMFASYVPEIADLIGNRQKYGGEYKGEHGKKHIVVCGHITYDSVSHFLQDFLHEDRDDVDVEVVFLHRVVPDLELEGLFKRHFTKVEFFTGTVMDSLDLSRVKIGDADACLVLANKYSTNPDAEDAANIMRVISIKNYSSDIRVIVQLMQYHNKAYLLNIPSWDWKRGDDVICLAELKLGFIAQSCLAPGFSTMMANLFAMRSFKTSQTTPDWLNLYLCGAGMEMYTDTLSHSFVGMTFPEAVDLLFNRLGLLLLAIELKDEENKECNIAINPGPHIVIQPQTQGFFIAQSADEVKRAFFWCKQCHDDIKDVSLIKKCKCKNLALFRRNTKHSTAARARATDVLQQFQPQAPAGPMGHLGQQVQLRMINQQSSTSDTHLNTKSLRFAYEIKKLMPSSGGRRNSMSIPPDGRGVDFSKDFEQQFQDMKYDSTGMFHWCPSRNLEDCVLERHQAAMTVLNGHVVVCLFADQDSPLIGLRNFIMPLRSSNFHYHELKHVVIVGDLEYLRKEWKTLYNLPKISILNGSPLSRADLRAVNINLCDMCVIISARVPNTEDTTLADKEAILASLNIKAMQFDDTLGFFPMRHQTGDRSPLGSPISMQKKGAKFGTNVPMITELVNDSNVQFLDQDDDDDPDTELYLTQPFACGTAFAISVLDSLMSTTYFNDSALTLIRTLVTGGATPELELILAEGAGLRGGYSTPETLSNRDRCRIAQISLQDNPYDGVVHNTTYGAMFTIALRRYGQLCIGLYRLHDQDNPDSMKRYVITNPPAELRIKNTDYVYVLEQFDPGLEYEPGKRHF
Conditions: not given
As for `Cc1nn2c(C3CC3)c(C(=O)N[C@H]3CCOc4ccccc43)cnc2c1-c1cccc2c1CCN2C` [Example 474], the pEC50 is 8.20.

Regarding `Cc1nn2c(C(C)C)c(C(=O)N[C@H]3CCc4ccccc43)cnc2c1-c1cc(Cl)c(F)c(Cl)c1` [Example 127], the pEC50 was 8.00.

Take `Cc1nn2c(C(C)C)c(C(=O)N[C@H]3CCOc4ccccc43)cnc2c1-c1cc(Cl)cc(Cl)c1F` [Example 262]: the pEC50 is 9.30.

On to `Cc1nn2c(C(C)C)c(C(=O)N[C@H]3CCOc4ccccc43)cnc2c1-c1cc(Cl)cc(Cl)c1` [Example 152], for which the pEC50 is 7.70.

Regarding `COc1cc(-c2c(C)nn3c(C(C)C)c(C(=O)N[C@H]4CCOc5ccccc54)cnc23)ccc1F` [Example 244], the negative-log EC50 (pEC50) was 8.20.

Turning to `Cc1nn2c(C(C)C)c(C(=O)N[C@H]3CCOc4ccccc43)cnc2c1-c1cc(Cl)c(F)c(Cl)c1` [Example 194], the pEC50 is 7.90.
